# Patent US11524968B2, “Heterocyclic compound as a protein kinase inhibitor” (HK inno.N Corporation, priority 2017, dated 2022)
# Molecular target: JAK1 (Homo sapiens (Human), UniProt P23458)
# Experiment: Analysis of JAK1 activity inhibition ability (ADP-Glo Kinase Assay)
# Format: biochemical
# Conditions: JAK1 enzyme, ADP-Glo luminescence, ATP 250 uM, IRS-itide substrate, 30° C. 40 minutes; read-out: IC50
# Summary of the method: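 ADP-Glo luminescence read-out of ADP production, with IC50 taken as the concentration halving JAK1 activity relative to control. Enzyme was incubated 40 min at 30 °C with compound, IRS-itide (40 ng/mL) and ATP (250 uM), concentrations as prepared in pH 7.5 Tris-HCl/MgCl2/BSA/DTT buffer.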
# Chain of JAK1 (P23458 whole entry): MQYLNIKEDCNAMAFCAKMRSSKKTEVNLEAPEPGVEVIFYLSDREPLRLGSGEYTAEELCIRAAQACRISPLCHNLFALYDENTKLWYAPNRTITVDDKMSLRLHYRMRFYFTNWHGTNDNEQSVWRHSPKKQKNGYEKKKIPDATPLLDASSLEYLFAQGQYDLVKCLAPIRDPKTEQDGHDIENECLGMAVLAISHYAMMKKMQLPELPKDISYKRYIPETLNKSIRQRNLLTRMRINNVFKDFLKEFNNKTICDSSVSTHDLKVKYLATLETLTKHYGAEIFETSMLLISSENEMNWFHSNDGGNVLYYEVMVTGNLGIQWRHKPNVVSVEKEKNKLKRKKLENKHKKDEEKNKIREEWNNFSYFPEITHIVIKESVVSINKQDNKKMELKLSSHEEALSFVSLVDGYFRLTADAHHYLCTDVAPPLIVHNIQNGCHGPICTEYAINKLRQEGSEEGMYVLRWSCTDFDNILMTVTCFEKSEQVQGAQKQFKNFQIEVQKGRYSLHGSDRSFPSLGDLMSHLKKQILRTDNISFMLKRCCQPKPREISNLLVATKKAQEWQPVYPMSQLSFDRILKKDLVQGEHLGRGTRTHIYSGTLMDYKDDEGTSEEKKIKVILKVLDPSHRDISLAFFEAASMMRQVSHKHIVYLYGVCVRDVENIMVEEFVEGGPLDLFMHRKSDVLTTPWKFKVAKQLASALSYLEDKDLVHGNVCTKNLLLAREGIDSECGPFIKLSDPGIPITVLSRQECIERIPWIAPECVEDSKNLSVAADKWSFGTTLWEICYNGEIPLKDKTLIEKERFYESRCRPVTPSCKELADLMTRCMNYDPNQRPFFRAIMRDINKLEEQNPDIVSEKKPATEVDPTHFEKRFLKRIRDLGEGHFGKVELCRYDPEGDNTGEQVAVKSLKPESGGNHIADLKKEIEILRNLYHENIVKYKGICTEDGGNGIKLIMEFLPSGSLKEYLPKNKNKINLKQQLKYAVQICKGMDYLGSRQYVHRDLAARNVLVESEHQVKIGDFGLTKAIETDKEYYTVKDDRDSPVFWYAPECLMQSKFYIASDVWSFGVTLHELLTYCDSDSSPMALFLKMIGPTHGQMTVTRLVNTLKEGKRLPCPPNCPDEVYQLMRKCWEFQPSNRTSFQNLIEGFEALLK
row,Structure (SMILES),IC50 [µM]
1,"O=C(Nc1nc(-c2ccc(NS(=O)(=O)C3CCS(=O)(=O)CC3)cc2)c2cc[nH]c2n1)C1CC1 [Example 195, N-(4-(4-((1,1-dioxidotetrahydro-2H-thiopyran)-4-sulfonamido)phenyl)-7H-pyrrolo[2,3-d]pyrimidin-2-yl)cyclopropanecarboxamide]",0.02 to 0.2
2,"O=C(Nc1cc(C2=CC3CCCC(C2)N3C(=O)c2ccnc(Cl)c2)c2cc[nH]c2n1)C1CC1 (stereo not drawn) [Example 367, N-(4-(9-(2-chloroisonicotinoyl)-9-azabicyclo[3.3.1]non-2-en-3-yl)-1H-pyrrolo[2,3-b]pyridin-6-yl)cyclopropanecarboxamide]",0.02 to 0.2
3,"CCS(=O)(=O)N1CC(CC#N)(N2CC=C(c3cc(NC(=O)C4CC4)nc4[nH]ccc34)[C@H](C)C2)C1 [Example 627, (S)—N-(4-(1-(3-(cyanomethyl)-1-(ethylsulfonyl)azetidin-3-yl)-3-methyl-1,2,3,6-tetrahydropyridin-4-yl)-1H-pyrrolo[2,3-b]pyridin-6-yl)cyclopropanecarboxamide]",< 0.02
4,"CC(C)(C)OC(=O)N1CCC(c2cc(NC(=O)C3CC3)nc3[nH]ccc23)C(F)C1 (stereo not drawn) [Example 656, tert-butyl 4-(6-(cyclopropanecarboxamido)-1H-pyrrolo[2,3-b]pyridin-4-yl)-3-fluoropiperidine-1-carboxylate]",> 0.2
5,"O=C(Nc1ccc(-c2nc(NC(=O)C3CC3)nc3[nH]ccc23)cc1)Nc1ccc(F)c(F)c1 [Example 440, N-(4-(4-(3-(3,4-difluorophenyl)ureido)phenyl)-7H-pyrrolo[2,3-d]pyrimidin-2-yl)cyclopropanecarboxamide]",0.02 to 0.2
6,"O=C(Nc1cc(C2=CC3CCC(C2)N3C(=O)CCC(F)(F)F)c2cc[nH]c2n1)C1CC1 (stereo not drawn) [Example 258, N-(4-(8-(4,4,4-trifluorobutanoyl)-8-azabicyclo[3.2.1]oct-2-en-3-yl)-1H-pyrrolo[2,3-b]pyridin-6-yl)cyclopropanecarboxamide]",< 0.02
7,"N#CCC(=O)N1C2CC1CN(c1cc(NC(=O)C3CC3)nc3[nH]ccc13)C2 [Example 685, N-(4-(6-(2-cyanoacetyl)-3,6-diazabicyclo[3.1.1]heptan-3-yl)-1H-pyrrolo[2,3-b]pyridin-6-yl)cyclopropanecarboxamide]",> 0.2
8,"N#CCC(=O)N1C2C=C(c3cc(NC(=O)C4CC4)nc4[nH]ccc34)CC1CCC2 (stereo not drawn) [Example 394, N-(4-(9-(2-cyanoacetyl)-9-azabicyclo[3.3.1]non-2-en-3-yl)-1H-pyrrolo[2,3-b]pyridin-6-yl)cyclopropanecarboxamide]",< 0.02
9,"O=C(Nc1cc(-c2ccc(OCCN3CCOCC3)cc2)c2cc[nH]c2n1)C1CC1 [Example 642, N-(4-(4-(2-morpholinoethoxy)phenyl)-1H-pyrrolo[2,3-b]pyridin-6-yl)cyclopropanecarboxamide]",0.02 to 0.2
10,"CC(C)(C)OC(=O)N1CCC=C(c2cc(NC(=O)C3CC3)nc3[nH]ccc23)C1 [Example 460, tert-butyl 5-(6-(cyclopropanecarboxamido)-1H-pyrrolo[2,3-b]pyridin-4-yl)-3,6-dihydropyridine-1 (2H)-carboxylate]",> 0.2
11,"CC1CC1C(=O)N1CC=C(c2cc(NC(=O)C3CC3)nc3[nH]ccc23)CC1 (stereo not drawn) [Example 273, N-(4-(1-(2-methylcyclopropane-1-carbonyl)-1,2,3,6-tetrahydropyridin-4-yl)-1H-pyrrolo[2,3-b]pyridin-6-yl)cyclopropanecarboxamide]",0.02 to 0.2
12,"O=C(Nc1cc(C2=CC3CCC(C2)N3C(=O)C2CC2)c2cc[nH]c2n1)C1CC1 (stereo not drawn) [Example 256, N-(4-(8-(cyclopropanecarbonyl)-8-azabicyclo[3.2.1]oct-2-en-3-yl)-1H-pyrrolo[2,3-b]pyridin-6-yl)cyclopropanecarboxamide]",< 0.02
13,"N#CCC1(CS(=O)(=O)N2C3CCC2CN(c2cc(NC(=O)C4CC4)nc4[nH]ccc24)C3)CC1 [Example 665, N-(4-(8-(((1-(cyanomethyl)cyclopropyl)methyl)sulfonyl)-3,8-diazabicyclo[3.2.1]octan-3-yl)-1H-pyrrolo[2,3-b]pyridin-6-yl)cyclopropanecarboxamide]",0.02 to 0.2
14,"N#CCC(=O)N1CC=C(c2cc(NC(=O)C3CC3)nc3[nH]ccc23)CCC1 [Example 422, N-(4-(1-(2-cyanoacetyl)-2,5,6,7-tetrahydro-1H-azepin-4-yl)-1H-pyrrolo[2,3-b]pyridin-6-yl)cyclopropanecarboxamide]",< 0.02
15,"CS(=O)(=O)Nc1ccc(-c2nc(NC(=O)C3CC3)nc3[nH]ccc23)cc1F [Example 201, N-(4-(3-fluoro-4-(methylsulfonamido)phenyl)-7H-pyrrolo[2,3-d]pyrimidin-2-yl)cyclopropanecarboxamide]",> 0.2

# Second part, the molecule after the results:
row,IC50 [µM],Structure (SMILES)
1,> 0.2,"C[C@H]1CC(Nc2ccc(-c3cc(NC(=O)C4CC4)nc4[nH]ccc34)cc2)CCN1C(=O)NCC(F)(F)F (stereo partly drawn) [Example 504, (2S)-4-((4-(6-(cyclopropanecarboxamido)-1H-pyrrolo[2,3-b]pyridin-4-yl)phenyl)amino)-2-methyl-N-(2,2,2-trifluoroethyl)piperidine-1-carboxamide]"
2,< 0.02,"O=C(Nc1cc(-c2ccc(NS(=O)(=O)CC3CCOCC3)c(F)c2)c2cc[nH]c2n1)C1CC1 [Example 73, N-(4-(3-fluoro-4-(((tetrahydro-2H-pyran-4-yl)methyl)sulfonamido)phenyl)-1H-pyrrolo[2,3-b]pyridin-6-yl)cyclopropanecarboxamide]"
3,0.02 to 0.2,"CCCS(=O)(=O)Nc1ccc(-c2cc(NC(=O)C3CC3)nc3[nH]ccc23)c(C(F)(F)F)c1 [Example 119, N-(4-(4-(propylsulfonamido)-2-(trifluoromethyl)phenyl)-1H-pyrrolo[2,3-b]pyridin-6-yl)cyclopropanecarboxamide]"
4,0.02 to 0.2,"CN(C)S(=O)(=O)c1ccc(S(=O)(=O)Nc2ccc(-c3cc(NC(=O)C4CC4)nc4[nH]ccc34)cc2)cc1 [Example 37, N-(4-(4-((4-(N,N-dimethylsulfamoyl)phenyl)sulfonamido)phenyl)-1H-pyrrolo[2,3-b]pyridin-6-yl)cyclopropanecarboxamide]"
5,0.02 to 0.2,"O=C(Nc1nc(-c2ccc(NS(=O)(=O)c3ccc(Br)cc3)cc2)c2cc[nH]c2n1)C1CC1 [Example 189, N-(4-(4-((4-bromophenyl)sulfonamido)phenyl)-7H-pyrrolo[2,3-d]pyrimidin-2-yl)cyclopropanecarboxamide]"
6,0.02 to 0.2,"N#CCCNC(=O)Cc1ccc(-c2cc(NC(=O)C3CC3)nc3[nH]ccc23)cc1 [Example 553, N-(4-(4-(2-((2-cyanoethyl)amino)-2-oxoethyl)phenyl)-1H-pyrrolo[2,3-b]pyridin-6-yl)cyclopropanecarboxamide]"
7,< 0.02,"O=C(Nc1cc(-c2ccc(NS(=O)(=O)CC3CCOC3)c(F)c2)c2cc[nH]c2n1)C1CC1 (stereo not drawn) [Example 72, N-(4-(3-fluoro-4-(((tetrahydrofuran-3-yl)methyl)sulfonamido)phenyl)-1H-pyrrolo[2,3-b]pyridin-6-yl)cyclopropanecarboxamide]"
8,0.02 to 0.2,"O=C(Nc1cc(-c2ccc(OS(=O)(=O)CCCF)cc2)c2cc[nH]c2n1)C1CC1 [Example 635, 4-(6-(cyclopropanecarboxamido)-1H-pyrrolo[2,3-b]pyridin-4-yl)phenyl 3-fluoropropane-1-sulfonate]"
9,0.02 to 0.2,"O=C(Nc1cc(-c2ccc(NS(=O)(=O)CCF)cc2)c2cc[nH]c2n1)C1CC1 [Example 8, N-(4-(4-((2-fluoroethyl)sulfonamido)phenyl)-1H-pyrrolo[2,3-b]pyridin-6-yl)cyclopropanecarboxamide]"
